# Source: patent US20200308170A1, “KRAS G12C INHIBITORS” (Mirati Therapeutics, Inc., priority 2017, published 2020)
# Target: KRas G12C (Homo sapiens, UniProt P01116, G12C)
# Assay: Inhibition of KRas G12C in NCI-H358 cells measured by phosphorylated ERK (Phospho-ERK)
# Assay type: cell-based
# Settings: 3 hours, 4 parameter fit, read-out: IC50 (pERK(Thr202/Tyr204) signal normalized with GAPDH)
# Method: Cells were plated in poly-D-Lysine coated 96-well plates at a concentration of 50,000 cells/well and allowed to attach for 8-12 hours. Diluted compounds were then added at a final concentration of 0.5% DMSO. After 3 hours, the medium was removed, 150 μL of 4% formaldehyde was added and the plates were incubated for 20 minutes. The plates were washed with PBS, and permeabilized using 150 μL of ice cold 100% methanol for 10 minutes. Non-specific antibody binding to the plates was blocked using 100 μL Licor Blocking Buffer (Li-Cor Biotechnology, Lincoln Nebr.) for 1 hour at room temperature. Positive control samples and samples lacking cells were parallel processed with test samples as standards.
# The amount Phospho-ERK was determined using an antibody specific for the phosphorylated form of ERK and compared to the amount of GAPDH. […] The plates were incubated for 2 hours at room temperature. The plates were washed with PBS+0.05% Tween 20.
# Secondary antibodies used to visualize primary antibodies were added as follows: Anti-rabbit-680 diluted 1:1000 and Anti-mouse-800 diluted 1:1000 in Licor Block+0.05% Tween 20 and incubated for 1 hour at room temperature. The plates were washed with PBS+0.05% Tween 20. A 100 μL aliquot of PBS was added to each well and the plates were read on a LICOR AERIUS plate reader.
# The pERK(Thr202/Tyr204) signal was normalized with the GAPDH signal and percent of DMSO control values were calculated. IC50 values were generated using a 4 parameter fit of the dose response curve.
# KRas G12C, sequence (P01116 1-188 isoform P01116-2 G12C): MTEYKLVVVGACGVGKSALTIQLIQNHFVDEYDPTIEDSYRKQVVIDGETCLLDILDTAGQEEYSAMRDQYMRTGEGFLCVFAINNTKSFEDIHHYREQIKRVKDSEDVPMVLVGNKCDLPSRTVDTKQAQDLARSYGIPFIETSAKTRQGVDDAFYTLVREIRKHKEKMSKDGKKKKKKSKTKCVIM
row,SMILES,IC50 [nM]
1,C=C(F)C(=O)N1CCN(c2nc(OCC34CCCN3CCC4)nc3c2CCN(c2cccc(C)c2C(F)(F)F)C3)C[C@@H]1CC#N [Example 144],0.1 to 1000
2,"C=C(F)C(=O)N1CCN(c2nc(OCC34CCCN3CCC4)nc3c2CCN(c2cccc4cccc(Cl)c24)C3)C[C@@H]1CC#N [Example 105, (S)-2-(4-(7-(8-chloronaphthalen-1-yl)-2-((tetrahydro-1H-pyrrolizin-7a(5H)-yl)methoxy)-5,6,7,8-tetrahydropyrido[3,4-d]pyrimidin-4-yl)-1-(2-fluoroacryloyl)piperazin-2-yl)acetonitrile]",0.1 to 1000
3,C=C(F)C(=O)N1CCN(c2nc(OCC3CC4(CC4)CN3C)nc3c2CCN(c2cccc4ccc(F)c(Cl)c24)C3)C[C@@H]1CC#N (stereo partly shown) [Example 160],0.1 to 1000
4,C=C(F)C(=O)N1CCN(c2nc(OC3CCN(C(C)C)C3)nc3c2CCN(c2cccc4ccc(F)c(Cl)c24)C3)C[C@@H]1CC#N (stereo partly shown) [Example 150],0.1 to 1000
5,C=C(F)C(=O)N1CCN(c2nc(OCC34CCCN3CCC4)nc3c2CCN(c2cccc(F)c2C(F)(F)F)C3)C[C@@H]1CC#N [Example 140],0.1 to 1000
6,C=C(F)C(=O)N1CCN(c2nc(OCC3CCN3CC)nc3c2CCN(c2cccc4ccc(F)c(Cl)c24)C3)C[C@@H]1CC#N (stereo partly shown) [Example 179],0.1 to 1000
7,"C=C(F)C(=O)N1CCN(c2nc(OCC3(C)CCCN3C)nc3c2CCN(c2cccc4ccc(F)c(Cl)c24)C3)C[C@@H]1CC#N (stereo partly drawn) [Example 139, 2-((2S)-4-(7-(8-chloro-7-fluoronaphthalen-1-yl)-2-((1,2-dimethylpyrrolidin-2-yl)methoxy)-5,6,7,8-tetrahydropyrido[3,4-d]pyrimidin-4-yl)-1-(2-fluoroacryloyl)piperazin-2-yl)acetonitrile]",0.1 to 1000
8,C=C(F)C(=O)N1CCN(c2nc(OCC(C)N3C[C@@H](C)O[C@@H](C)C3)nc3c2CCN(c2cccc4ccc(F)c(Cl)c24)C3)C[C@@H]1CC#N (stereo partly shown) [Example 164],1000 to 10000
9,"C=C(F)C(=O)N1CCN(c2nc(OC[C@@H]3CCCN3C)nc3c2CCN(c2cccc4ccc(F)c(C)c24)C3)C[C@@H]1CC#N [Example 131, 2-((S)-4-(7-(7-fluoro-8-methylnaphthalen-1-yl)-2-(((S)-1-methylpyrrolidin-2-yl)methoxy)-5,6,7,8-tetrahydropyrido[3,4-d]pyrimidin-4-yl)-1-(2-fluoroacryloyl)piperazin-2-yl)acetonitrile]",0.1 to 1000
10,C=C(F)C(=O)N1CCN(c2nc(OC[C@@H]3CC4CCN3C4)nc3c2CCN(c2cccc4ccc(F)c(Cl)c24)C3)C[C@@H]1CC#N (stereo partly shown) [Example 180],0.1 to 1000
11,C=C(F)C(=O)N1CCN(c2nc(OCC34CCCN3C[C@H](F)C4)nc3c2CCN(c2cccc4ccc(F)c(Cl)c24)C3)C[C@@H]1CC#N (stereo partly shown) [Example 156],0.1 to 1000
12,C=C(F)C(=O)N1CCN(c2nc(OCC34CCCN3CCC4)nc3c2CCN(c2cccc(C)c2C)C3)C[C@@H]1CC#N [Example 142],0.1 to 1000
13,C=C(F)C(=O)N1CCN(c2nc(OCC3CN(C)CCC34CN(C)C4)nc3c2CCN(c2cccc4ccc(F)c(Cl)c24)C3)C[C@@H]1CC#N (stereo partly shown) [Example 162],0.1 to 1000
14,C=C(F)C(=O)N1CCN(c2nc(OCC34CCCN3CCC4)nc3c2CCN(c2cccc4cccc(Br)c24)C3)C[C@@H]1CC#N [Example 143],0.1 to 1000
15,"COC/C=C/C(=O)N1CCN(c2nc(OC[C@@H]3CC(F)(F)CN3C)nc3c2CCN(c2cccc4cccc(C)c24)C3)C[C@@H]1CC#N [Example 60, 2-((S)-4-(2-(((S)-4,4-difluoro-1-methylpyrrolidin-2-yl)methoxy)-7-(8-methylnaphthalen-1-yl)-5,6,7,8-tetrahydropyrido[3,4-d]pyrimidin-4-yl)-1-((E)-4-methoxybut-2-enoyl)piperazin-2-yl)acetonitrile]",0.1 to 1000
16,C=C(F)C(=O)N1CCN(c2nc(OC3CC4(C3)CN(C)C4)nc3c2CCN(c2cccc4ccc(F)c(Cl)c24)C3)C[C@@H]1CC#N [Example 149],1000 to 10000
17,C=C(F)C(=O)N1CCN(c2nc(OCC34CCCN3CC3(CC3)C4)nc3c2CCN(c2cccc4ccc(F)c(Cl)c24)C3)C[C@@H]1CC#N (stereo partly shown) [Example 184],0.1 to 1000
18,C=C(F)C(=O)N1CCN(c2nc(OCC3CCOC3)nc3c2CCN(c2cccc4ccc(F)c(Cl)c24)C3)C[C@@H]1CC#N (stereo partly shown) [Example 189],1000 to 10000
19,C=C(F)C(=O)N1CCN(c2nc(OC[C@@H]3CCCN3C)nc3c2CCN(c2cccc4ccc(F)c(F)c24)C3)C[C@@H]1CC#N [Example 136],0.1 to 1000
20,C=C(F)C(=O)N1CCN(c2nc(O[C@H]3CCC[C@@H]3N(C)C)nc3c2CCN(c2cccc4ccc(F)c(Cl)c24)C3)C[C@@H]1CC#N [Example 153],1000 to 10000

row,SMILES,IC50 [nM]
1,"C=C(F)C(=O)N1CCN(c2nc(OC[C@@H]3C[C@@H](F)CN3)nc3c2CCN(c2cccc4ccc(F)c(Cl)c24)C3)C[C@@H]1CC#N [Example 209, 2-((S)-4-(7-(8-chloro-7-fluoronaphthalen-1-yl)-2-(((2S,4R)-4-fluoropyrrolidin-2-yl)methoxy)-5,6,7,8-tetrahydropyrido[3,4-d]pyrimidin-4-yl)-1-(2-fluoroacryloyl)piperazin-2-yl)acetonitrile]",0.1 to 1000
2,C=C(F)C(=O)N1CCN(c2nc(OCCCN3C[C@@H]4C[C@H]3CO4)nc3c2CCN(c2cccc4ccc(F)c(Cl)c24)C3)C[C@@H]1CC#N [Example 198],0.1 to 1000
3,C=C(F)C(=O)N1CCN(c2nc(OCC34COCN3COC4)nc3c2CCN(c2cccc4ccc(F)c(Cl)c24)C3)C[C@@H]1CC#N [Example 155],0.1 to 1000
4,C=C(F)C(=O)N1CCN(c2nc(OCC34CCCN3CCC4)nc3c2CCN(c2cccc(Cl)c2C(F)(F)F)C3)C[C@@H]1CC#N [Example 141],0.1 to 1000
5,C=C(F)C(=O)N1CCN(c2nc(OCC3(CC)CCCN3C)nc3c2CCN(c2cccc4ccc(F)c(Cl)c24)C3)C[C@@H]1CC#N (stereo partly shown) [Example 175],0.1 to 1000
6,C=C(F)C(=O)N1CCN(c2nc(OCC34CCCN3CC(F)(F)C4)nc3c2CCN(c2cccc4ccc(F)c(Cl)c24)C3)C[C@@H]1CC#N (stereo partly shown) [Example 174],0.1 to 1000
7,C=C(F)C(=O)N1CCN(c2nc(OCC3COCCC34CN(C)C4)nc3c2CCN(c2cccc4ccc(F)c(Cl)c24)C3)C[C@@H]1CC#N (stereo partly shown) [Example 161],0.1 to 1000
8,C=C(F)C(=O)N1CCN(c2nc(O[C@@H]3CCCC[C@H]3N(C)C)nc3c2CCN(c2cccc4ccc(F)c(Cl)c24)C3)C[C@@H]1CC#N [Example 182],1000 to 10000
9,"C=C(F)C(=O)N1CCN(c2nc(OC3CCN(C4CCOCC4)CC3)nc3c2CCN(c2cccc4cccc(Cl)c24)C3)C[C@@H]1CC#N [Example 130, (S)-2-(4-(7-(8-chloronaphthalen-1-yl)-2-((1-(tetrahydro-2H-pyran-4-yl)piperidin-4-yl)oxy)-5,6,7,8-tetrahydropyrido[3,4-d]pyrimidin-4-yl)-1-(2-fluoroacryloyl)piperazin-2-yl)acetonitrile]",1000 to 10000
10,C=C(F)C(=O)N1CCN(c2nc(OC[C@@H]3CCCN3CC)nc3c2CCN(c2cccc4ccc(F)c(Cl)c24)C3)C[C@@H]1CC#N [Example 185],0.1 to 1000
11,C=C(F)C(=O)N1CCN(c2nc(OCC34CCCCN3CCC4)nc3c2CCN(c2cccc4ccc(F)c(Cl)c24)C3)C[C@@H]1CC#N (stereo partly shown) [Example 151],0.1 to 1000
12,C=C(F)C(=O)N1CCN(c2nc(OC[C@@H]3C[C@@H](F)CN3C(C)C)nc3c2CCN(c2cccc4ccc(F)c(Cl)c24)C3)C[C@@H]1CC#N [Example 183],0.1 to 1000
13,C=C(F)C(=O)N1CCN(c2nc(OCCn3ccnc3)nc3c2CCN(c2cccc4ccc(F)c(Cl)c24)C3)C[C@@H]1CC#N [Example 163],1000 to 10000
14,"C=C(F)C(=O)N1CCN(c2nc(OCCN(C)CC(F)(F)F)nc3c2CCN(c2cccc4ccc(F)c(Cl)c24)C3)C[C@@H]1CC#N [Example 148, (S)-2-(4-(7-(8-chloro-7-fluoronaphthalen-1-yl)-2-(2-(methyl(2,2,2-trifluoroethyl)amino)ethoxy)-5,6,7,8-tetrahydropyrido[3,4-d]pyrimidin-4-yl)-1-(2-fluoroacryloyl)piperazin-2-yl)acetonitrile]",1000 to 10000
15,"C=C(F)C(=O)N1CCN(c2nc(OC[C@@H]3CC(F)(F)CN3)nc3c2CCN(c2cccc4ccc(F)c(Cl)c24)C3)C[C@@H]1CC#N [Example 208, 2-((S)-4-(7-(8-chloro-7-fluoronaphthalen-1-yl)-2-(((S)-4,4-difluoropyrrolidin-2-yl)methoxy)-5,6,7,8-tetrahydropyrido[3,4-d]pyrimidin-4-yl)-1-(2-fluoroacryloyl)piperazin-2-yl)acetonitrile]",0.1 to 1000
16,C=C(F)C(=O)N1CCN(c2nc(OCC3CN(C)C3)nc3c2CCN(c2cccc4ccc(F)c(Cl)c24)C3)C[C@@H]1CC#N [Example 173],0.1 to 1000
17,C=C(F)C(=O)N1CCN(c2nc(OC[C@@H]3[C@@H]4CC[C@@H](C4)N3C)nc3c2CCN(c2cccc4ccc(F)c(Cl)c24)C3)C[C@@H]1CC#N [Example 190],0.1 to 1000
18,C=C(F)C(=O)N1CCN(c2nc(OCC(C)N3CCCCC3)nc3c2CCN(c2cccc4ccc(F)c(Cl)c24)C3)C[C@@H]1CC#N (stereo partly shown) [Example 158],0.1 to 1000
19,C=C(F)C(=O)N1CCN(c2nc(OCC34CCCN3C(C)CC4)nc3c2CCN(c2cccc4ccc(F)c(Cl)c24)C3)C[C@@H]1CC#N (stereo partly shown) [Example 186],0.1 to 1000
20,C=C(F)C(=O)N1CCN(c2nc(OCC3COC3)nc3c2CCN(c2cccc4ccc(F)c(Cl)c24)C3)C[C@@H]1CC#N [Example 197],0.1 to 1000
